Assay results from ChEMBL document CHEMBL5291721, “A preclinical secondary pharmacology resource illuminates target-adverse drug reaction associations of marketed drugs” (Nat Commun, 2023).

Legend:
[1] = target: T1, Estrogen receptor (Homo sapiens, UniProt P03372); format: functional
T1 sequence (P03372 whole entry): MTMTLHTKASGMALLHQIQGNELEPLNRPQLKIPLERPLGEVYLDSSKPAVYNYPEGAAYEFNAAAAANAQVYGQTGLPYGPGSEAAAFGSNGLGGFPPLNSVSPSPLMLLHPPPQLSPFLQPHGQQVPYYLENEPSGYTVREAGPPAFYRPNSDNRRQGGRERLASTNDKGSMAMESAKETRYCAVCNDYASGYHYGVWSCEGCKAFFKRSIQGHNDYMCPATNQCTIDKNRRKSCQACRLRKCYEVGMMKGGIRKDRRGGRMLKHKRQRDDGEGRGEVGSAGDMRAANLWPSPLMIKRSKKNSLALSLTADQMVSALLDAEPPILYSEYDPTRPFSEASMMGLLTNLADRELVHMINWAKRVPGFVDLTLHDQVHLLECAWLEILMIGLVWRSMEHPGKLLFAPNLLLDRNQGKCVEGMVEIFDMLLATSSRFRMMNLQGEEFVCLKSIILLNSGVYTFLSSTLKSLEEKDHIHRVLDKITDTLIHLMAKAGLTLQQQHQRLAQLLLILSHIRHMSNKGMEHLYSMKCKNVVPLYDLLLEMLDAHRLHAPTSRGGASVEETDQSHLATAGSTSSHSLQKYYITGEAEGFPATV

[2] = target: T2, Peroxisome proliferator-activated receptor gamma (Homo sapiens, UniProt P37231); format: functional
T2 sequence (P37231 whole entry): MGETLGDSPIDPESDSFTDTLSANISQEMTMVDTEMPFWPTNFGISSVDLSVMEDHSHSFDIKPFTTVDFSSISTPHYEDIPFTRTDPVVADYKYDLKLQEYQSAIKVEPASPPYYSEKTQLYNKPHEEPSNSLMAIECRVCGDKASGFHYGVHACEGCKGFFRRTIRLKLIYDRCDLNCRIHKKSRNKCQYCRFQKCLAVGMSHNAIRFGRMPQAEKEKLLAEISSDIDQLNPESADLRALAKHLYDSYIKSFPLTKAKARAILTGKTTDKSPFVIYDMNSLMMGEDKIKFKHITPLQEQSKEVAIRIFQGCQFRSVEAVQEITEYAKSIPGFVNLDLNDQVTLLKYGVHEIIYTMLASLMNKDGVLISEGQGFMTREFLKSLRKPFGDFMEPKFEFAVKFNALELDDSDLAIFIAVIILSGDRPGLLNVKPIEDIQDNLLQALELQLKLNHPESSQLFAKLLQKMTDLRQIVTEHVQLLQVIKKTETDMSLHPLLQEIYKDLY

[3] = target: T2, Peroxisome proliferator-activated receptor gamma; format: functional; remark: listed apart in the source
[4] = target: T3, Androgen receptor (Homo sapiens, UniProt P10275)
T3 sequence (P10275 whole entry): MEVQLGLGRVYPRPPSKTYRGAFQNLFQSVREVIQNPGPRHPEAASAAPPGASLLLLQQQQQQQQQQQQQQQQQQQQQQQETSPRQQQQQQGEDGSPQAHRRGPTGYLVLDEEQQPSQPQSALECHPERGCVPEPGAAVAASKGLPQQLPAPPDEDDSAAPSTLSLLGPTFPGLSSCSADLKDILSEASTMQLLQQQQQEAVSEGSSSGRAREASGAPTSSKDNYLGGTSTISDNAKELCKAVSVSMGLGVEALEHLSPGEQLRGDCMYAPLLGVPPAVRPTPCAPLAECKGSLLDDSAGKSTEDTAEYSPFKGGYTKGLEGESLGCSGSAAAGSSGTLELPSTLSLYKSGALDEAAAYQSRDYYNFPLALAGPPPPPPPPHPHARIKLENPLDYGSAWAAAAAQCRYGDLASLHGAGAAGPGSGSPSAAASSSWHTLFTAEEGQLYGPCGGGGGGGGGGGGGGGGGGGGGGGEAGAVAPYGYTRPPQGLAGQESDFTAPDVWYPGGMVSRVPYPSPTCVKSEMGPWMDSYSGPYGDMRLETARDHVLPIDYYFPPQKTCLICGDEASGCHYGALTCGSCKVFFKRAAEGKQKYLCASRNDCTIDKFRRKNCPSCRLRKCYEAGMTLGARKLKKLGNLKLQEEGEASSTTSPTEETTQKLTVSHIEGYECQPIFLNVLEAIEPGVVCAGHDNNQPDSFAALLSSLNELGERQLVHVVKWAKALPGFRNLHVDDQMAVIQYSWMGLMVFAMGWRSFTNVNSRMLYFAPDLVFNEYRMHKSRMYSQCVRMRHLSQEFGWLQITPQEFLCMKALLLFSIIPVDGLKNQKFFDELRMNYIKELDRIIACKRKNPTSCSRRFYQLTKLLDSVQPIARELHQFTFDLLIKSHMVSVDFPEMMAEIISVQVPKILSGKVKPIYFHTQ

[5] = target: T4, Neuropeptide Y receptor type 2 (Homo sapiens, UniProt P49146)
T4 sequence (P49146 whole entry): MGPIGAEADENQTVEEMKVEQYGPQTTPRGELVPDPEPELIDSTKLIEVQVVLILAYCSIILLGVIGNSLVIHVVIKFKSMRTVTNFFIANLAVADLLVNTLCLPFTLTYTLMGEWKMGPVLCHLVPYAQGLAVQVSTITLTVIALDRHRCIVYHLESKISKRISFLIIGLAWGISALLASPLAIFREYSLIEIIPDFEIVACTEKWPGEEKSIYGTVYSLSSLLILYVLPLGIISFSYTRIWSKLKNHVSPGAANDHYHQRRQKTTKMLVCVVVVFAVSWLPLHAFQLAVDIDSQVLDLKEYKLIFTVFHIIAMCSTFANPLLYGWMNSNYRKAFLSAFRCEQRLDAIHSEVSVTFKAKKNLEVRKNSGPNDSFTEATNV

[6] = target: T5, B1 bradykinin receptor (Homo sapiens, UniProt P46663)
T5 sequence (P46663 whole entry): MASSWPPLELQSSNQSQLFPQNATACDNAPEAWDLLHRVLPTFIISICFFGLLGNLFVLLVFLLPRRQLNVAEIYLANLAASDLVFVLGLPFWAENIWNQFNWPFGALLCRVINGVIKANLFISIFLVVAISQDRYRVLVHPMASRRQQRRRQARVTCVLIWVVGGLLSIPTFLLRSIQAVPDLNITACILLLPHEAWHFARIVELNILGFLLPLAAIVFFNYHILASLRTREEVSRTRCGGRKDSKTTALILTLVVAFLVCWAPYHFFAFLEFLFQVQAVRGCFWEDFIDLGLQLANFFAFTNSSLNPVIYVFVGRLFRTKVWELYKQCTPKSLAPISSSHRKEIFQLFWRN

[7] = target: Beta-3 adrenergic receptor (Homo sapiens, UniProt P13945)
Beta-3 adrenergic receptor, sequence (P13945 whole entry): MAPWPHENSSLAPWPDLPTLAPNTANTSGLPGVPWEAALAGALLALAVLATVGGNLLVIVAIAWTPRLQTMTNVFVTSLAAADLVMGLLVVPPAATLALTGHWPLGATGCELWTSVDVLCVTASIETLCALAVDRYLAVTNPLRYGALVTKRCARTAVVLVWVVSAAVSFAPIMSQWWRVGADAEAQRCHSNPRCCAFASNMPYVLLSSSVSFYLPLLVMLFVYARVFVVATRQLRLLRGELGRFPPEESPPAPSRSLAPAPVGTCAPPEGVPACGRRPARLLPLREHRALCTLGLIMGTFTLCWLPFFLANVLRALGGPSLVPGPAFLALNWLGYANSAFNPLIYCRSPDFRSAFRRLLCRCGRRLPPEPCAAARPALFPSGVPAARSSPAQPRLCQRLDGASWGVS

[8] = target: Glucagon receptor (Homo sapiens, UniProt P47871)
Glucagon receptor, sequence (P47871 whole entry): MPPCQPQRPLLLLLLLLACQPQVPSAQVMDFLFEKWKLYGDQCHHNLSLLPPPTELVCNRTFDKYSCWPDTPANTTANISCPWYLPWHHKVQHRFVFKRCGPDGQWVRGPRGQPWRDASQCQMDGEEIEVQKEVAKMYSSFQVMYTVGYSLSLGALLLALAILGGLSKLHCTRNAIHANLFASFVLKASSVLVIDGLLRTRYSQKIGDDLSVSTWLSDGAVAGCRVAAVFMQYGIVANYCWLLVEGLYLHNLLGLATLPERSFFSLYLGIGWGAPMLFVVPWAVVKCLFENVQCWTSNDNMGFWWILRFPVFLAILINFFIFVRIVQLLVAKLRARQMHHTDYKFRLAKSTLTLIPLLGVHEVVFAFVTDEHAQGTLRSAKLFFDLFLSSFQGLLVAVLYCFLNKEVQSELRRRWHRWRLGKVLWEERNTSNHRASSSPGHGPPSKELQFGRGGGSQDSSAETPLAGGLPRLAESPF

[9] = target: Substance-P receptor (Homo sapiens, UniProt P25103)
Substance-P receptor, sequence (P25103 whole entry): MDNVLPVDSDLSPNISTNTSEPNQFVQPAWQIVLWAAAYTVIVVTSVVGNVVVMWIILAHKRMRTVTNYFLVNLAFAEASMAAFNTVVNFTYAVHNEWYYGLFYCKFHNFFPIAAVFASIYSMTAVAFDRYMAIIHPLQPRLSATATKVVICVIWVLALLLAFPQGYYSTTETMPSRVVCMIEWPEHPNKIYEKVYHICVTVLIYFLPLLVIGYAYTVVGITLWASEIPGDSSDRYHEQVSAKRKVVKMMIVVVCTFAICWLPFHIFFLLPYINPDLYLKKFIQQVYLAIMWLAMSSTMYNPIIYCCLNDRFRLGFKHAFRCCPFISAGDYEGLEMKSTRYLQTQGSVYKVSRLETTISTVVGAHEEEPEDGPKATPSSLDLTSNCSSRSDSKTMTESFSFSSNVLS
Note: assay procedure not described here.

| Compound | AC50 [1] [µM] | AC50 [2] [µM] | AC50 [3] [µM] | AC50 [4] [µM] | AC50 [5] [µM] | AC50 [6] [µM] | AC50 [7] [µM] | AC50 [8] [µM] | AC50 [9] [µM] |
| --- | --- | --- | --- | --- | --- | --- | --- | --- | --- |
| CN(C)CCC=C1c2ccccc2C(C)(C)c2ccccc21 | > 30 | > 30 | > 30 |  |  |  |  |  |  |
| O=C1Nc2ccc(Cl)cc2[C@@](C#CC2CC2)(C(F)(F)F)O1 [EFAVIRENZ] | > 30 | > 30 | 18 |  |  |  |  |  |  |
| O=C(OCC(O)CO)c1ccccc1Nc1ccnc2cc(Cl)ccc12 (centres undefined) [GLAFENINE] | > 10 | > 30 | > 30 | > 30 |  |  |  |  |  |
| c1ccc([C@H]2CN3CCSC3=N2)cc1 [LEVAMISOLE] | > 30 | > 30 | > 30 |  |  |  |  |  |  |
| C[C@H]1CNCCc2ccc(Cl)cc21 [LORCASERIN] | > 30 | > 30 | > 30 |  |  |  |  |  |  |
| CNC1Cc2ccccc2N(C)c2ccccc21 (centres undefined) [METAPRAMINE] | > 30 | > 30 | > 30 |  |  |  |  |  |  |
| COc1ccc(CC(C)(C)NC[C@H](O)c2cc(O)cc3c2OCC(=O)N3)cc1 [OLODATEROL] | > 30 | > 30 | > 30 |  |  |  |  |  |  |
| CCCN1C[C@H](CSC)C[C@@H]2c3cccc4[nH]cc(c34)C[C@H]21 [PERGOLIDE] | > 30 | > 30 | > 30 |  | > 30 | > 30 | 20.8 | > 30 |  |
| C1CCC(C(CC2CCCCN2)C2CCCCC2)CC1 (centres undefined) [PERHEXILINE] | > 30 | > 30 | > 30 |  |  |  |  |  |  |
| c1cnc(N2CCN(Cc3ccc4c(c3)OCO4)CC2)nc1 [PIRIBEDIL] | > 30 | > 30 | > 30 |  |  |  |  |  |  |
| Cc1c(C(=O)NN2CCCCC2)nn(-c2ccc(Cl)cc2Cl)c1-c1ccc(Cl)cc1 [RIMONABANT] | > 30 | > 30 | 17 |  | > 30 | > 30 | > 30 | > 30 | > 10 |
| Cn1nnc2c(C(N)=O)ncn2c1=O [TEMOZOLOMIDE] | > 30 | > 30 | > 30 |  | > 30 | > 30 | > 30 | > 30 | > 10 |
| N[C@@H]1[C@H]2CN(c3nc4c(cc3F)c(=O)c(C(=O)O)cn4-c3ccc(F)cc3F)C[C@@H]12 [TROVAFLOXACIN] | > 30 | > 30 | > 30 |  |  |  |  |  |  |
